Reference: US12280018B2, “Antiseptic compositions” (RHT LIMITED, priority 2020, dated 2025)

Tests used:
[1] = tested on: PolySeed® BOD Seed Inoculum (blend of broad spectrum bacteria); assay: Durability test (bacteria spiked regularly on treated agar plate, swab viable count); assay type: cell-based; details: bacteria solution spiked every 60 minutes
Protocol: To evaluate the durability of bacteria inhibition of the exemplary compositions, durability test by regularly spiking a fixed amount of bacteria into the sample is performed and the procedures are incorporated herein by reference.
• Group A: Agar plate with 0.5 mL distilled water; • Group B: Agar plate with 0.5 mL 75% isopropyl alcohol (IPA); • Group C: Agar plate with 0.5 g of tested exemplary composition.
Bacteria strain used: PolySeed® BOD Seed Inoculum Capsules (1 caspsule dissolved into 500 mL Distilled Water) (Interlab), which contains a blend of broad spectrum bacteria designed specifically as a seed inoculum for the Biochemical Oxygen Demand (BOD 5) test as conducted in accordance to Standard Methods of the Examination of Water and Wastewater. PolySeed® is an EPA approved BOD 5 seed inoculum that has been used to seed both municipal and industrial wastes for almost 20 years.
Agar: Trypticase Soy Agar (TSA)
Incubation condition: 48 hours at 30±1° C.
The above three sample group agar plates are used as the sample matrices of different initial situation for spiking 0.5 ml bacteria solution for every 60 minutes, i.e.: there was an on-going process of spiking bacteria at time 0, 60, 120, 180, 240, 300 minutes;
A swab testing is carried out every 30 minutes from matrix samples of each group to test for the viable count of bacteria at the time interval.
• AM: 0.5 ml bacteria solution is added at T0-10 min; • Sample A1: To swab from AM at T0; Sample A2: To swab from AM at T1; • AM: 0.5 ml bacteria solution is added at T2-10 min; • Sample A3: To swab from AM at T2; Sample A4: To swab from AM at T3; • AM: 0.5 ml bacteria solution is added at T4-10 min; and so forth. Table 2 summarized the testing schedule for durability test.

[2] = tested on: PolySeed® BOD Seed Inoculum; assay: Volatility test (duration of bacteria inhibition on treated agar plate); assay type: cell-based
Protocol: To study the duration on ability of bacteria inhibition of an exemplary composition, a volatility test is performed.
• Group A: Agar plate with 0.5 mL distilled water; • Group B: Agar plate with 0.5 mL 75% isopropyl alcohol (IPA); • Group C: Agar plate with 0.5 g of tested exemplary composition. Bacteria strain used: PolySeed® BOD Seed Inoculum Capsules (1 capsule dissolved into 500 mL Distilled Water) (Interlab) Agar: Trypticase Soy Agar (TSA) Incubation condition: 48 hours at 30±1° C. Testing Procedure 0.5 mL bacteria solution is add into the agar plate groups A, B and C at the time interval of Tx. as defined in Table 1.3.
After T10, bacteria solution is spiked to all the agar plates except agar blank.
Swab test is carried out to test for the viable count of bacteria at the time interval Tx.

`CC(C)O` [75% IPA, isopropyl alcohol] showed a CFU/plate ([1]; T0 (0 min)) of 8 CFU/plate, a CFU/plate ([1]; T1 (30 min)) of 28 CFU/plate and a CFU/plate ([1]; T2 (60 min)) of 53 CFU/plate. For the same compound, the CFU/plate ([1]; T3 (90 min)) was 89 CFU/plate, the CFU/plate ([1]; T4 (120 min)) was 254 CFU/plate and the CFU/plate ([1]; T5 (150 min)) was 346 CFU/plate. The CFU/plate ([1]; T6 (180 min)) was “Uncountable (the bacterial colonies are too numerous to be counted in the agar plate, e.g., more than 335 colonies per plate)”, the CFU/plate ([1]; T7 (210 min)) was “Uncountable (the bacterial colonies are too numerous to be counted in the agar plate, e.g., more than 335 colonies per plate)” and the CFU/plate ([1]; T8 (240 min)) was “Uncountable (the bacterial colonies are too numerous to be counted in the agar plate, e.g., more than 335 colonies per plate)”. The CFU/plate ([1]; T9 (270 min)) was “Uncountable (the bacterial colonies are too numerous to be counted in the agar plate, e.g., more than 335 colonies per plate)”, the CFU/plate ([1]; T10 (300 min)) was “Uncountable (the bacterial colonies are too numerous to be counted in the agar plate, e.g., more than 335 colonies per plate)” and the CFU/plate ([2]; T0 (0 min)) was 54 CFU/plate. The CFU/plate ([2]; T1 (30 min)) was 62 CFU/plate, the CFU/plate ([2]; T2 (60 min)) was 50 CFU/plate and the CFU/plate ([2]; T3 (90 min)) was 45 CFU/plate. It also gave a CFU/plate ([2]; T4 (120 min)) of 49 CFU/plate, a CFU/plate ([2]; T5 (150 min)) of 55 CFU/plate and a CFU/plate ([2]; T6 (180 min)) of 43 CFU/plate. For the same compound, the CFU/plate ([2]; T7 (210 min)) was 37 CFU/plate, the CFU/plate ([2]; T8 (240 min)) was 44 CFU/plate and the CFU/plate ([2]; T9 (270 min)) was 49 CFU/plate. The CFU/plate ([2]; T10 (300 min)) was 0 CFU/plate.
